Among the data in patent publication US11040975B2, “Carbocyclic nucleoside reverse transcriptase inhibitors” (Merck Sharp & Dohme Corp., priority 2017, dated 2021) are IC50 values, retold here.

As usually defined, the IC50 is the concentration needed to halve the response being measured.

In one assay the test system is HIV-1 (H9IIIB virus). As to the kind of experiment: Viking assay: antiviral potency in a multiple round HIV-1 infection assay (MT4-GFP cells). It counts as cell-based. The conditions noted are these: Human immunodeficiency virus 1, MT4-GFP cells, 10% normal human serum; inhibition of reproductive ratio R0; read-out: Viking, IC50 (10% NHS). How it is done:
Assessing Antiviral Potency in a Multiple Round HIV-1 Infection Assay.
HIV-1 replication was monitored using MT4-gag-GFP clone D3 (hereafter designate MT4-GFP), which are MT-4 cells modified to harbor a GFP reporter gene, the expression of which is dependent on the HIV-1 expressed proteins tat and rev. Productive infection of an MT4-GFP cell with HIV-1 results in GFP expression approximately 24h post-infection.
MT4-GFP cells were maintained at 37° C./5% CO2/90% relative humidity in RPMI 1640 supplemented with 10% fetal bovine serum, 100 U/mL penicillin/streptomycin, and 400 μg/mL G418 to maintain the reporter gene. For infections, MT4-GFP cells were placed in the same medium lacking G418 and infected overnight with H9IIIB virus at an approximate multiplicity of infection of 0.01 in the same incubation conditions. Cells were then washed and re-suspended in either RPMI 1640 containing 10% or 50% normal human serum at 1.6×10^5 cells/mL. Compound plates were prepared by dispensing compounds dissolved in DMSO into wells of 384 well poly D lysine-coated plates ([…]) using an ECHO acoustic dispenser. Each compound was tested in a 10 point serial 3-fold dilution (typical final concentrations: 8.4 μM-0.43 nM). Controls included no inhibitor (DMSO only) and a combination of three antiviral agents (efavirenz, indinavir, and an integrase strand transfer inhibitor at final concentrations of 4 μM each). Cells were added (50 μL/well) to compound plates and the infected cells were maintained at 37° C./5% CO2/90% relative humidity.
Infected cells were quantified at two time points, ˜48h and ˜72h post-infection, by counting the number of green cells in each well using an Acumen eX3 scanner. The increase in the number of green cells over ˜24h period gives the reproductive ratio, R0, which is typically 5-15 and has been shown experimentally to be in logarithmic phase (data not shown). Inhibition of R0 is calculated for each well, and IC50s determined by non-linear 4-parameter curve fitting.
`C#C[C@]1(CO[P@@](=O)(N[C@@H](C)C(=O)OC(C)C)Oc2ccccc2)C[C@@H](n2cnc3c(OCC)nc(N)nc32)C[C@@H]1O` (mixture of isomers) [Example 39A and 39B, Isopropyl ((S)-(((1S,2S,4R)-4-(2-amino-6-ethoxy-9H-purin-9-yl)-1-ethynyl-2-hydroxycyclopentyl)methoxy)(phenoxy)phosphoryl)-L-alaninate and Isopropyl ((S)-(((1R,2R,4S)-4-(2-amino-6-ethoxy-9H-purin-9-yl)-1-ethynyl-2-hydroxycyclopentyl)methoxy)(phenoxy)phosphoryl)-L-alaninate]: the IC50 came to 27.1 nM.
Same read-out and setting: for `C#C[C@]1(CO)C[C@@H](n2cnc3c(Cl)nc(F)nc32)C[C@@H]1O` (racemic) [Example (+/−) 12, (1S,2S,4R)-4-(6-chloro-2-fluoro-9H-purin-9-yl)-2-ethynyl-2-(hydroxymethyl)cyclopentan-1-ol and (1R,2R,4S)-4-(6-chloro-2-fluoro-9H-purin-9-yl)-2-ethynyl-2-(hydroxymethyl)cyclopentan-1-ol] the value was > 42000 nM; for `C#C[C@]1(CO)C[C@@H](n2ccc3c(Cl)nc(Cl)nc32)C[C@@H]1O` (racemic) [Example (+/−) 21, (1S,2S,4R)-4-(2,4-dichloro-7H-pyrrol[2,3-d]pyrimidin-7-yl)-2-ethynyl-2-(hydroxymethyl)cyclopentan-1-ol and (1R,2R,4S)-4-(2,4-dichloro-7H-pyrrolo[2,3-d]pyrimidin-7-yl)-2-ethynyl-2-(hydroxymethyl)cyclopentan-1-ol], > 42000 nM; for `C#C[C@]1(CO)C[C@@H](n2ccc3c(N)nc(Cl)nc32)C[C@@H]1O` (racemic) [Example (+/−) 22, (1S,2S,4R)-4-(4-amino-2-chloro-7H-pyrrolo[2,3-d]pyrimidin-7-yl)-2-ethynyl-2-(hydroxymethyl)cyclopentan-1-ol and (1R,2R,4S)-4-(4-amino-2-chloro-7H-pyrrolo[2,3-d]pyrimidin-7-yl)-2-ethynyl-2-(hydroxymethyl)cyclopentan-1-ol], 22200 nM.
On the same count and under the same terms, in the case of `C#C[C@]1(CO)C[C@@H](n2cnc3c(=O)[nH]c(N)nc32)C[C@@H]1O` (racemic) [Example (+/−) 26, 2-amino-9-((1R,3S,4S)-3-ethynyl-4-hydroxy-3-(hydroxymethyl)cyclopentyl)-1,9-dihydro-6H-purin-6-one and 2-amino-9-((1S,3R,4R)-3-ethynyl-4-hydroxy-3-(hydroxymethyl)cyclopentyl)-1,9-dihydro-6H-purin-6-one] it was 195 nM; in that of `C#C[C@]1(CO)C[C@@H](n2cnc3c(OCC)nc(N)nc32)C[C@@H]1O` (racemic) [Example (+/−) 30, (1S,2S,4R)-4-(2-amino-6-ethoxy-9H-purin-9-yl)-2-ethynyl-2-(hydroxymethyl)cyclopentan-1-ol and (1R,2R,4S)-4-(2-amino-6-ethoxy-9H-purin-9-yl)-2-ethynyl-2-(hydroxymethyl)cyclopentan-1-ol], 614 nM; in that of `C#C[C@]1(CO)C[C@@H](n2cc(C)c(=O)[nH]c2=O)C[C@@H]1O` (racemic) [Example (+/−) 34, 1-((1R,3S,4S)-3-ethynyl-4-hydroxy-3-(hydroxymethyl)cyclopentyl)-5-methylpyrimidine-2,4(1H,3H)-dione and 1-((1S,3R,4R)-3-ethynyl-4-hydroxy-3-(hydroxymethyl)cyclopentyl)-5-methylpyrimidine-2,4(1H,3H)-dione], > 42000 nM.
Same read-out and setting: for `C#C[C@]1(CO)C[C@@H](n2ccc(N)nc2=O)C[C@@H]1O` (racemic) [Example (+/−) 38, 4-amino-1-((1R,3S,4S)-3-ethynyl-4-hydroxy-3-(hydroxymethyl)cyclopentyl)pyrimidin-2(1H)-one and 4-amino-1-((1S,3R,4R)-3-ethynyl-4-hydroxy-3-(hydroxymethyl)cyclopentyl)pyrimidin-2(1H)-one] the value was > 42000 nM; for `N#C[C@]1(CO)C[C@@H](n2cnc3c(=O)[nH]c(N)nc32)C[C@@H]1O` (racemic) [Example (+/−) 61, (1S,2S,4R)-4-(2-amino-6-oxo-1,6-dihydro-9H-purin-9-yl)-2-hydroxy-1-(hydroxymethyl)cyclopentane-1-carbonitrile and (1R,2R,4S)-4-(2-amino-6-oxo-1,6-dihydro-9H-purin-9-yl)-2-hydroxy-1-(hydroxymethyl)cyclopentane-1-carbonitrile], 998 nM.
Consider `N#C[C@]1(CO)C[C@@H](n2ccc(N)nc2=O)C[C@@H]1O` (racemic) [Example (+/−) 65, (1S,2S,4R)-4-(4-amino-2-oxopyrimidin-1(2H)-yl)-2-hydroxy-1-(hydroxymethyl)cyclopentane-1-carbonitrile and (1R,2R,4S)-4-(4-amino-2-oxopyrimidin-1(2H)-yl)-2-hydroxy-1-(hydroxymethyl)cyclopentane-1-carbonitrile], for which the IC50 is > 42000 nM.
Turning to `Cc1cn([C@H]2C[C@H](O)[C@@](C#N)(CO)C2)c(=O)[nH]c1=O` (racemic) [Example (+/−) 69, (1S,2S,4R)-2-hydroxy-1-(hydroxymethyl)-4-(5-methyl-2,4-dioxo-3,4-dihydropyrimidin-1(2H)-yl)cyclopentane-1-carbonitrile and (1R,2R,4S)-2-hydroxy-1-(hydroxymethyl)-4-(5-methyl-2,4-dioxo-3,4-dihydropyrimidin-1(2H)-yl)cyclopentane-1-carbonitrile], the IC50 was determined as 16000 nM.
`C#C[C@]1(CO)C[C@@H](n2cnc3c(N)nc(Cl)nc32)C[C@@H]1O` (single isomer, unassigned) [Example 18B, (1S,2S,4R)-4-(6-amino-2-chloro-9H-purin-9-yl)-2-ethynyl-2-(hydroxymethyl)cyclopentan-1-ol or (1R,2R,4S)-4-(6-amino-2-chloro-9H-purin-9-yl)-2-ethynyl-2-(hydroxymethyl)cyclopentan-1-ol]: the IC50 was determined as 11600 nM.
As for `C#C[C@@]1(CO[P@@](=O)(N[C@@H](C)C(=O)OC(C)C)Oc2ccccc2)C[C@H](n2cnc3c(OCC)nc(N)nc32)C[C@H]1O` (single isomer, unassigned) [Example 39A, Isopropyl ((S)-(((1S,2S,4R)-4-(2-amino-6-ethoxy-9H-purin-9-yl)-1-ethynyl-2-hydroxycyclopentyl)methoxy)(phenoxy)phosphoryl)-L-alaninate or Isopropyl ((S)-(((1R,2R,4S)-4-(2-amino-6-ethoxy-9H-purin-9-yl)-1-ethynyl-2-hydroxycyclopentyl)methoxy)(phenoxy)phosphoryl)-L-alaninate], the IC50 came to 484 nM.
As for `C#C[C@]1(CO[P@@](=O)(N[C@@H](C)C(=O)OC(C)C)Oc2ccccc2)C[C@@H](n2cnc3c(OCC)nc(N)nc32)C[C@@H]1O` (single isomer, unassigned) [Example 39B, Isopropyl ((S)-(((1S,2S,4R)-4-(2-amino-6-ethoxy-9H-purin-9-yl)-1-ethynyl-2-hydroxycyclopentyl)methoxy)(phenoxy)phosphoryl)-L-alaninate or Isopropyl ((S)-(((1R,2R,4S)-4-(2-amino-6-ethoxy-9H-purin-9-yl)-1-ethynyl-2-hydroxycyclopentyl)methoxy)(phenoxy)phosphoryl)-L-alaninate], the IC50 came out at 5.93 nM.
Regarding `N#C[C@]1(CO)C[C@@H](n2cnc3c(N)nc(F)nc32)C[C@@H]1O` (single isomer, unassigned) [Example 73A, (1S,2S,4R)-4-(6-amino-2-fluoro-9H-purin-9-yl)-2-hydroxy-1-(hydroxymethyl)cyclopentane-1-carbonitrile or (1R,2R,4S)-4-(6-amino-2-fluoro-9H-purin-9-yl)-2-hydroxy-1-(hydroxymethyl)cyclopentane-1-carbonitrile], the IC50 was > 42000 nM.

The same assay, now with this note: MT4-GFP cells, 10% normal human serum; inhibition of reproductive ratio R0; read-out: Viking, IC50 (10% NHS).
In the case of `C#C[C@]1(CO)C[C@@H](n2cnc3c(=O)[nH]c(N)nc32)C[C@@H]1O` (single isomer, unassigned) [Example 26A, 2-amino-9-((lR,3S,4S)-3-ethynyl-4-hydroxy-3-(hydroxymethyl)cyclopentyl)-1,9-dihydro-6H-purin-6-one or 2-amino-9-((1S,3R,4R)-3-ethynyl-4-hydroxy-3-(hydroxymethyl)cyclopentyl)-1,9-dihydro-6H-purin-6-one], the IC50 was > 42000 nM.
On the same count and under the same terms, for `C#C[C@]1(CO)C[C@@H](n2cnc3c(=O)[nH]c(N)nc32)C[C@@H]1O` (single isomer, unassigned) [Example 26B, 2-amino-9-((1R,3S,4S)-3-ethynyl-4-hydroxy-3-(hydroxymethyl)cyclopentyl)-1,9-dihydro-6H-purin-6-one or 2-amino-9-((1S,3R,4R)-3-ethynyl-4-hydroxy-3-(hydroxymethyl)cyclopentyl)-1,9-dihydro-6H-purin-6-one] the value was 142 nM.
